{"source": "ChEMBL document CHEMBL4229386", "about": "“Benzopyrroloxazines containing a bridgehead nitrogen atom as promising scaffolds for the achievement of biologically active agents” (Eur J Med Chem, 2018)", "key": {"Hepatitis C virus": {"test_system": "Hepatitis C virus", "assay": "Antiviral activity against HCV replicon after 3 days by RT-PCR analysis", "format": "functional, organism-based, Hepacivirus hominis", "conditions": "72 h"}, "[1]": {"target": "T1, RNA-directed RNA polymerase (Hepacivirus hominis, UniProt O39930)", "T1 sequence (O39930 whole entry)": "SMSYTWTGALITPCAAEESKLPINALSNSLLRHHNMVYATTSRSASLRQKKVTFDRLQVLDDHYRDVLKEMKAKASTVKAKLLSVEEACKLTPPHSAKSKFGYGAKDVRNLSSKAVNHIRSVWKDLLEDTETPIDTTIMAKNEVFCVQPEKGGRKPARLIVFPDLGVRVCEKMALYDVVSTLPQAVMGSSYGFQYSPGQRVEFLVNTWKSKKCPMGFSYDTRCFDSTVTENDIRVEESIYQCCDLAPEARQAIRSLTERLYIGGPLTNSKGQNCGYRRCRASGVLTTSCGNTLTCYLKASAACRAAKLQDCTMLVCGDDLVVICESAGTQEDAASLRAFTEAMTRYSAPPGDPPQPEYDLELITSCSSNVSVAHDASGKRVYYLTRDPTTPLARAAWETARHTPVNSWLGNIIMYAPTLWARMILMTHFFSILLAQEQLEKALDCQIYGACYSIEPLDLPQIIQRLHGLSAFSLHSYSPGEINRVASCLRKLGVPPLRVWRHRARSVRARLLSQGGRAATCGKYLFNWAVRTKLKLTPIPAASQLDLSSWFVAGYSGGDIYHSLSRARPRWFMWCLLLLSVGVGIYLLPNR", "assay": "Inhibition of HCV NS5B RNA dependent RNA polymerase"}, "Staphylococcus aureus": {"test_system": "Staphylococcus aureus", "assay": "Antimicrobial activity against Staphylococcus aureus", "format": "functional"}, "Escherichia coli": {"test_system": "Escherichia coli", "assay": "Antimicrobial activity against Escherichia coli", "format": "functional"}, "Acetylcholinesterase": {"target": "T2, Acetylcholinesterase (Bos taurus, UniProt P23795)", "T2 sequence (P23795 whole entry)": "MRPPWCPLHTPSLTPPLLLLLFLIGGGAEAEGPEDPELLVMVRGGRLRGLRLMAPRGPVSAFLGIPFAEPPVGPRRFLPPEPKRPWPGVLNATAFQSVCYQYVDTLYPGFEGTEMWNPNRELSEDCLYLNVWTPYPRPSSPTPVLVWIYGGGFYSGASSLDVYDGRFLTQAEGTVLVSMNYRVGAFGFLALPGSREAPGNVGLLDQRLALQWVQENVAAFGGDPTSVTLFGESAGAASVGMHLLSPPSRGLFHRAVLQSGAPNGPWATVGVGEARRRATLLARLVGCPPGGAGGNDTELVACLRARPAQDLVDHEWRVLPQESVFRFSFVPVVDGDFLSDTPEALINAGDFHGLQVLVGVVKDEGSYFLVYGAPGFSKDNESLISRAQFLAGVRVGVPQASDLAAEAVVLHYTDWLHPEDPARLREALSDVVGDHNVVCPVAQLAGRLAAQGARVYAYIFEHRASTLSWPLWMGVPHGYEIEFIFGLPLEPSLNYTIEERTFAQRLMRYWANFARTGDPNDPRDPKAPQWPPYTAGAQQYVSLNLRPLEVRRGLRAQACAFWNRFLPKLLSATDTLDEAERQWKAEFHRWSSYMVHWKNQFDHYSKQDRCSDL", "assay": "Inhibition of bovine AChE using ACH iodide as substrate preincubated for 60 mins followed by substrate addition and measured after 1 hrs by spectrophotometeric analysis"}, "[2]": {"target": "T1, RNA-directed RNA polymerase", "assay": "Inhibition of HCV genotype 1b NS5B RNA dependent RNA polymerase expressed in Escherichia coli BL21 (DE3) using biotinylated oligo-dT12 primer as substrate after 60 mins", "parameters": "species or system Hepatitis C virus subtype 1b"}, "Rattus norvegicus": {"species_on_record": "Rattus norvegicus", "assay": "Analgesic activity in rat assessed as inhibition of acetic acid-induced writhing", "format": "functional"}, "Staphylococcus": {"test_system": "Staphylococcus", "assay": "Antimicrobial activity against Staphylococcus", "format": "functional"}, "[3]": {"assay": "Inhibition of [33P]-ATP binding to Escherichia coli NR2 after 15 mins by liquid scintillation analysis"}, "[4]": {"target": "Methionine aminopeptidase 2 (Homo sapiens, UniProt P50579)", "sequence (P50579 whole entry)": "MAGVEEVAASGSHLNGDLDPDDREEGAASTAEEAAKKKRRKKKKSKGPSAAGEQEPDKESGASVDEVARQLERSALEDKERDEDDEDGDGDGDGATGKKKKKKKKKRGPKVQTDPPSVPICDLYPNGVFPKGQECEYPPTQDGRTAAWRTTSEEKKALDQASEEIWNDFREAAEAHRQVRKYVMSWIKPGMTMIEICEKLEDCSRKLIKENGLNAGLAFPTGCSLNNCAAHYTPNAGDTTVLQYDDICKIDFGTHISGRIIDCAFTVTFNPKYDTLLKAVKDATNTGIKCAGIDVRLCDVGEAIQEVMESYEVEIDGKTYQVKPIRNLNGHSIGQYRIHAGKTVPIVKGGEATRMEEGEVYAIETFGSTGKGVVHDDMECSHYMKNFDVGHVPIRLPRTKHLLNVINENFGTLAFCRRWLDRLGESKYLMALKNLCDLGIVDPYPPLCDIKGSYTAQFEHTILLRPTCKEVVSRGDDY", "assay": "Inhibition of human recombinant MetAP2 expressed in Sf9 insect cells using MAS as substrate after 30 mins by fluorometeric analysis"}, "[5]": {"target": "Sodium channel protein type 9 subunit alpha (Rattus norvegicus, UniProt O08562)", "sequence (O08562 whole entry)": "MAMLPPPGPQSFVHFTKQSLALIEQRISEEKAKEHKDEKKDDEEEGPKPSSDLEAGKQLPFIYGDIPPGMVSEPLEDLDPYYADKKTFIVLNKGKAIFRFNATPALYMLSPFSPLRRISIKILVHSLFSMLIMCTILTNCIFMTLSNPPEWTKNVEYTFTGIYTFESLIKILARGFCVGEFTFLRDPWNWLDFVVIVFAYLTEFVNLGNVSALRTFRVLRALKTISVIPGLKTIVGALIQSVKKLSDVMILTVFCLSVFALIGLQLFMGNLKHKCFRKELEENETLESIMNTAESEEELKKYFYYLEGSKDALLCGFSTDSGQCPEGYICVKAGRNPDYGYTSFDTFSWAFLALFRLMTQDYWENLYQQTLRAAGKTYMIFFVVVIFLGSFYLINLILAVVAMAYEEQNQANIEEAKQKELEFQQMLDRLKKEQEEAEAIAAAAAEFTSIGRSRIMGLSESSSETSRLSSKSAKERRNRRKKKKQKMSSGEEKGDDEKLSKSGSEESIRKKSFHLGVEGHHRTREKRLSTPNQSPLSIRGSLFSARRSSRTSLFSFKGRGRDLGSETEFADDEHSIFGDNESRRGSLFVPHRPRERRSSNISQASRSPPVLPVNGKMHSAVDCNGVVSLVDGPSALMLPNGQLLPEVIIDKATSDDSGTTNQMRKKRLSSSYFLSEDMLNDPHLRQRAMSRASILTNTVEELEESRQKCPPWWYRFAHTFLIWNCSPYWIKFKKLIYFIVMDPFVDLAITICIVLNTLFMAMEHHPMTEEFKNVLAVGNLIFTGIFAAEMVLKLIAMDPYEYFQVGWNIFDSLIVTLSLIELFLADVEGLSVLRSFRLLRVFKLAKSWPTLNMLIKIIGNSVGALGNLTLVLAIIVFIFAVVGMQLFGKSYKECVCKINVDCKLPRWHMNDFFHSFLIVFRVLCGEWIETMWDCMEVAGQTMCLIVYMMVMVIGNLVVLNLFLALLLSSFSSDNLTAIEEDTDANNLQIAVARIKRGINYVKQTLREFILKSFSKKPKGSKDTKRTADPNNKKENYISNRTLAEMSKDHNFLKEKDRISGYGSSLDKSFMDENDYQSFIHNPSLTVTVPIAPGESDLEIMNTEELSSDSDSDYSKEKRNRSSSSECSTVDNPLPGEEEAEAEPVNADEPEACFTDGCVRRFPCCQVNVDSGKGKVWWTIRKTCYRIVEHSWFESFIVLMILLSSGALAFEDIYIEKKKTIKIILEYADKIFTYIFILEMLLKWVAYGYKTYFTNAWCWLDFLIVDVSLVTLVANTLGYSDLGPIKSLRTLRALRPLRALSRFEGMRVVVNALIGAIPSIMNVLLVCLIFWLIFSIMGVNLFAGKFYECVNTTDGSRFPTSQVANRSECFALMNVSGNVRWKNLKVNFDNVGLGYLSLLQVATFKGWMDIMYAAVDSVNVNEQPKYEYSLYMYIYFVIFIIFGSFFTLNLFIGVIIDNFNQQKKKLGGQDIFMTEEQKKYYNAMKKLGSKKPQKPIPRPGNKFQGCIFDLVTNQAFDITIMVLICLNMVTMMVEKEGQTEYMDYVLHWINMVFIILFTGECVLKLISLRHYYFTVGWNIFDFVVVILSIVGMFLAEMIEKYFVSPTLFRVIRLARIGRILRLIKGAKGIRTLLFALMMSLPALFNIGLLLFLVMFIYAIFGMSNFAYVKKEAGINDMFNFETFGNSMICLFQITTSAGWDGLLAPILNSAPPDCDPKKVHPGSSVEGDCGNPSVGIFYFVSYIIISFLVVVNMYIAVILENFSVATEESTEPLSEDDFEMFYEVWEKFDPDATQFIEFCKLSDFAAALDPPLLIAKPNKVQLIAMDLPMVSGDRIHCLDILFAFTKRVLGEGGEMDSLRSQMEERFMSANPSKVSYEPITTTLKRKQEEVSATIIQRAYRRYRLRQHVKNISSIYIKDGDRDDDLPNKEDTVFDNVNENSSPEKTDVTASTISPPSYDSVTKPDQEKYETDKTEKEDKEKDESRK", "assay": "Inhibition of Nav1.7 in rat dorsal root ganglions at -60 mV holding potential by patch clamp assay"}}, "data": [{"molecule": "COC(=O)NC(C(=O)N1CCCC1c1ncc(-c2ccc3c(c2)-n2ccc4cc(-c5cnc(C6CCCN6C(=O)C(NC(=O)OC)C(C)C)[nH]5)cc(c42)O3)[nH]1)C(C)C", "note": "(stereo unspecified)", "values": [{"measurement": "EC50", "setting": "Hepatitis C virus", "value": 0.01, "unit": "nM"}]}, {"molecule": "COC(=O)NC(C(=O)N1CCCC1c1ncc(-c2ccc3c(c2)OCn2c-3c(F)c3cc(-c4cnc(C5CCCN5C(=O)C(NC(=O)OC)C(C)C)[nH]4)ccc32)[nH]1)C(C)C", "note": "(stereo unspecified)", "values": [{"measurement": "IC50", "setting": "[1]", "value": 0.001, "unit": "nM"}]}, {"molecule": "CCCc1c(O)cc2oc3cccn3c(=O)c2c1O", "values": [{"measurement": "MIC", "setting": "Staphylococcus aureus", "value": 2, "unit": "µg/mL"}, {"measurement": "MIC", "setting": "Escherichia coli", "value": 2, "unit": "µg/mL"}]}, {"molecule": "CC(=O)OC12C=CC(=O)N1c1ccccc1C(=O)O2", "note": "(stereo unspecified)", "values": [{"measurement": "Ki", "setting": "Acetylcholinesterase", "value": 4700, "unit": "nM"}]}, {"molecule": "CN(C)S(=O)(=O)NC(=O)c1ccc2c(C3CCCCC3)c(-c3ccccc3)n3c2c1OCC3", "values": [{"measurement": "IC50", "setting": "[2]", "value": "< 10000", "unit": "nM"}]}, {"molecule": "Cc1c(C(=O)c2ccc3ncccc3c2)c2cccc3c2n1C(CN1CCOCC1)CO3", "note": "(stereo unspecified)", "values": [{"measurement": "ED50", "setting": "Rattus norvegicus", "value": 3.5, "unit": "mg/kg"}]}, {"molecule": "CCCc1c(O)cc2oc3cc(Cl)cn3c(=O)c2c1O", "values": [{"measurement": "MIC", "setting": "Staphylococcus", "value": "0.2 to 0.78", "unit": "µg/mL"}, {"measurement": "IC50", "setting": "[3]", "value": 20000, "unit": "nM"}]}, {"molecule": "CCN(CC)C/C=C\\c1cc(F)ccc1S(=O)(=O)Nc1ccc2c(c1C(=O)O)OCc1cccn1-2", "values": [{"measurement": "IC50", "setting": "[4]", "value": "< 50", "unit": "nM"}]}, {"molecule": "COc1c(O)cccc1C(=O)N1CCC2(CC1)Oc1ccccc1-n1c(C#N)ccc12", "values": [{"measurement": "IC50", "setting": "[5]", "value": "< 2000", "unit": "nM"}]}]}
